Data: US20250304560A1, “MODULATORS OF NLRP3 INFLAMMASOME AND RELATED PRODUCTS AND METHODS” (Neumora Therapeutics, Inc., priority 2022, published 2025)
pIC50: −log10 of the molar value. Read-outs that look alike come from different tables or passages of the source.

Columns and labels:
[1] = target: T1, hERG channels (Homo sapiens, UniProt Q12809); assay: hERG assay, whole-cell patch-clamp in CHO-hERG cells; format: cell-based; conditions: for pIC50: whole-cell patch-clamp, CHO-hERG cells
T1 construct: host or cells: CHO-hERG cells
Procedure: CHO-hERG cells (Sophion Biosciences (Ballerup, Denmark), subcultured and frozen in WuXi AppTec (Suzhou) Co., Ltd.), stored in liquid nitrogen, were tested and determined to be free from mycoplasma contamination. Cells were not used after the 30th passage. CHO-hERG cells were cultured in a humidified incubator of 5% CO2 (4% to 8%) in air at 37° C. (±2° C.). The cells were recovered with recovery medium (F12 medium with 10% fetal bovine serum), subcultured in complete medium (F12 medium, supplemented with 10% fetal bovine serum, 1% Geneticin® selective antibiotic (G418), 89 μg/mL Hygromycin B (HB)), and the culture medium was switched to recovery medium in the last subculture before patch-clamp experiment.
To determine the compounds' IC50, select compounds (“test articles”) were dissolved into DMSO, and then diluted with ECS to get working solutions. Five concentrations of 0.3, 1, 3, 10, and 30 μM were tested. Two replicate cells for each concentration were tested.
Exponentially growing CHO-hERG cells were collected and suspended in extracellular solution for use. The hERG current was recorded at physiological temperature (33.0° C. to 37.0° C.) using whole-cell patch-clamp techniques. Output signals from the patch-clamp amplifier were digitized and low-pass filtered at 2.9 KHz. The recording was controlled with Patchmaster Pro software. The recording chamber with seeded cells was mounted on an inverted microscope stage. A cell in the recording chamber was randomly selected for testing. The cell was continuously perfused from the perfusion system. A micropipette filled with ICS was used as recording electrode in the manual patch-clamp study. The micropipette was prepared on the day of the patch-clamp experiment using glass capillaries (BF150-117-10, SUTTER INSTRUMENT USA). The pipette resistance (Rp) was within 2 to 5 MΩ with ICS filled. From the holding potential of-80 mV, the voltage was increased to +60 mV for 850 ms to open the hERG channels. After that, the voltage was decreased to-50 mV for 1275 ms, causing a “rebound” or tail current, the peak tail current was measured and collected for data analysis. Finally, the voltage was decreased to the holding potential (−80 mV). This command voltage protocol was repeated every 15 s continuously during the test article application.
During the initial recording period with vehicle control working solution, the peak tail current amplitude was monitored until it had been stable for at least 3 sweeps. Cells were then perfused with test article/positive control working solutions until the peak tail current amplitude reached steady state. Steady state was considered reached when three consecutive super-imposable peak tail currents were collected. At this point, cells were once again perfused with next concentration of test article. One or more test articles/positive control or different concentrations of the same test article were tested on each cell with vehicle control washout until the current amplitude returned to values at least 80% of those measured before application of test article. […] At least 2 replicate cells for each concentration were tested. […] (Milnes, J. T., et al.)
Seal criteria: When acquiring whole-cell configuration, a holding potential (e.g.,-80 mV) was applied while membrane parameters were collected (Cm, Rm and Rs). A “good” whole-cell recording was generally defined as: series resistance (Rs) was less than 10 MΩ; membrane resistance (Rm) was more than 500 MΩ and membrane capacitance (Cm) was less than 100 pF. Current amplitude: The peak current amplitude must be between 400 pA and 5000 pA before the test article/positive control application; otherwise the cell was discarded. Leak criteria: At-80 mV holding potential, the absolute leak current value must be less than 200 pA. The amplitude of current was adjusted with leak current at-80 mV. The sweeps which absolute leak current value was more than 200 pA was not used in data analysis.

[2] = test system: IL-6; assay: IL-6 AlphaLISA in LPS-primed THP1 macrophages; conditions: for IC50 / pIC50: Homo sapiens; for pIC50: THP-1, read-out: IL-6 Activity, LPS-primed THP1 macrophages, Table 11 comparison
[3] = target: NLRP3 inflammasome (Homo sapiens, UniProt Q96P20); assay: NLRP3 inflammasome activation in THP1 macrophages, IL-1β AlphaLISA; conditions: for IC50: IL-1β Activity (nM), PMA, LPS priming, nigericin 6.7 uM activation
[4] = THP-1, read-out: IL-6 Activity (μM), THP1 macrophages, PMA, LPS priming, nigericin 6.7 uM
[5] = IL-1β Activity, THP1 macrophages, Table 11 comparison
[6] = THP-1, read-out: IL-6 Activity (μM)

T1 sequence (Q12809 whole entry): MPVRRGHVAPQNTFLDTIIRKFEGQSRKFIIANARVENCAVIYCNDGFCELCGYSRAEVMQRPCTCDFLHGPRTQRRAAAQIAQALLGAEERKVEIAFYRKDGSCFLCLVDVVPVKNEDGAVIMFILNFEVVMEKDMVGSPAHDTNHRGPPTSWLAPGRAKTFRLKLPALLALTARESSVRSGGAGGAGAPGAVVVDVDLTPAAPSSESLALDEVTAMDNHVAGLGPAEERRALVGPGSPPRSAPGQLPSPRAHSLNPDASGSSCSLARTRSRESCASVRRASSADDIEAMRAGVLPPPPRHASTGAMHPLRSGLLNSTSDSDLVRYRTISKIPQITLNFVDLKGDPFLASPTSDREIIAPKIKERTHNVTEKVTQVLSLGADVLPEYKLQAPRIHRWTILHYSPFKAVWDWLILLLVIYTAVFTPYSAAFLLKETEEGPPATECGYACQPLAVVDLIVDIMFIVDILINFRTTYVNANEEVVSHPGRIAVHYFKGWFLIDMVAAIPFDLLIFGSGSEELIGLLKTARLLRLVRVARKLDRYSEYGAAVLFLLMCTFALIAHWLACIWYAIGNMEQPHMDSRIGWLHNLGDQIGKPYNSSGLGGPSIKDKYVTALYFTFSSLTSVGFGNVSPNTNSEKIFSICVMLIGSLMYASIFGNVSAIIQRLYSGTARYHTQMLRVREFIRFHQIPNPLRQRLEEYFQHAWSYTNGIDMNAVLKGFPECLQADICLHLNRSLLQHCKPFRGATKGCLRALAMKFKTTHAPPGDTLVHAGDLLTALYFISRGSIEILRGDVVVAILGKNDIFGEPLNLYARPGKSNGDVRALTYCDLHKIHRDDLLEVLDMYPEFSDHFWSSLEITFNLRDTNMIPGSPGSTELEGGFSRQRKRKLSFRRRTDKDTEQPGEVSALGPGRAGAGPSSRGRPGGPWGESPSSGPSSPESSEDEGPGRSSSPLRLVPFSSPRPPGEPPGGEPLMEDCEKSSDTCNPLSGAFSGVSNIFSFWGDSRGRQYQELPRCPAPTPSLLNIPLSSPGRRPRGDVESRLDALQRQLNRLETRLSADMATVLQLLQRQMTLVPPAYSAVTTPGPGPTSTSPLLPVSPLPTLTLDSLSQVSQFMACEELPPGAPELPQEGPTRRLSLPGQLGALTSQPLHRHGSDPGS
Sequence of NLRP3 inflammasome (Q96P20 whole entry): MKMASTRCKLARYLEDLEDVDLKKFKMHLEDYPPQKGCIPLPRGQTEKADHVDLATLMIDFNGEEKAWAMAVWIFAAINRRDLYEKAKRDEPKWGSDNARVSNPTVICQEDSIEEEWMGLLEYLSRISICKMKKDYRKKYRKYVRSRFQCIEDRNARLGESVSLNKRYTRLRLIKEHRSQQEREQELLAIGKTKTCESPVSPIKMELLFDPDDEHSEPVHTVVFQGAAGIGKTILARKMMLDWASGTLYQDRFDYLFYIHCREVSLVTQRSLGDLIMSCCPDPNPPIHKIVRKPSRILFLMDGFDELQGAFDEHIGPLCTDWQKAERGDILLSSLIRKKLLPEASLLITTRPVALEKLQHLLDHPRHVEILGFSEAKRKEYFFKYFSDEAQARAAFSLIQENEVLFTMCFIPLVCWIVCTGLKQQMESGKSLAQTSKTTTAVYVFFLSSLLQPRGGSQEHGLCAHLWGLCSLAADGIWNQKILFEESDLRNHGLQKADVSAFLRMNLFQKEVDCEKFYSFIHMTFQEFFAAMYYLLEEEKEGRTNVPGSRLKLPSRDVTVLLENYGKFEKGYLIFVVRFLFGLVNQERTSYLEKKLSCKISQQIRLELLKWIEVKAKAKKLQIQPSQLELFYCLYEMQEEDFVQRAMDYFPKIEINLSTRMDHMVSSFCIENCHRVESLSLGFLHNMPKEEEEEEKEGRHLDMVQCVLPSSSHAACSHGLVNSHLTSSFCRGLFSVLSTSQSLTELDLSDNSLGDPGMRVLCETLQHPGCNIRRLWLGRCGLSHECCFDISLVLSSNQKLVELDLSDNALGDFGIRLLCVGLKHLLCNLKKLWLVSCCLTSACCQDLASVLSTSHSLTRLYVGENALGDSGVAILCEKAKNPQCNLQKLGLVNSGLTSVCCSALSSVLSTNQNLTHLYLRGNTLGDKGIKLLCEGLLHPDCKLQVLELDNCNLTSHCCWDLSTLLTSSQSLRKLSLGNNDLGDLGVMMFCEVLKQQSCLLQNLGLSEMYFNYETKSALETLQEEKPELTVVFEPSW

Compound | IC50 [2, 4] [µM] | pIC50 [2] | IL-1ß activity (in words) [3] | IC50 ([3]; THP1 macrophages) [nM] | hERG inhibition (in words) [1] | pIC50 ([1]; 33.0-37.0 °C, Table 10) | pIC50 ([1]; Table 11 comparison) | also measured
Cc1cc(F)cc(O)c1-c1ccc(N(C)[C@@H]2CCCN(C)C2)nn1 [compound 22] | > 10 | < 5.00 | potent | 10 to 100 | unexpectedly low | < 4.52 | < 4.52 | IL-6 activity (in words) [2]: potent; pIC50 [3, 5]: 7.00 to 8.00
Cc1cc(N[C@@H]2CCCN(C)C2)nnc1-c1ccc(C2CC2)cc1O [compound 3] | 5 to 10 | 5.00 to 5.30 |  |  | high | 5.00 to 5.52 | 5.00 to 5.52 | 
Cc1cccc(O)c1-c1ccc(N[C@@H]2CCCN(C)C2)nn1 [compound 7] | 1 to 5 |  |  | 1 to 10 |  | < 4.52 |  | 
Cc1cc(N[C@@H]2CCCN(C)C2)nnc1-c1ccccc1O [compound 2, 2-[4-methyl-6-[[(3R)-1-methyl-3-piperidyl]amino]pyridazin-3-yl]phenol] | 5 to 10 | 5.00 to 5.30 | potent | 1 to 10 | unexpectedly low | < 4.52 | < 4.52 | IL-6 activity (in words) [2]: potent; pIC50 [3, 5]: 8.00 to 9.00
Cc1cc(N[C@@H]2CCCN(C)C2)nnc1-c1ccc(OC(F)(F)F)cc1O [B, reference compound] |  | < 5.00 | potent |  | high |  | 5.52 to 6.00 | 
Cc1cc(N[C@@H]2CCCN(C)C2)nnc1-c1ccc(Cl)cc1O [D, reference compound] |  | < 5.00 | potent |  | high |  | 5.00 to 5.52 | 
Cc1cc(O[C@@H]2CCCN(C)C2)nnc1-c1ccc(F)cc1O [compound 34] |  |  |  |  |  | < 4.52 |  | IC50 [2, 6]: > 10 µM; pIC50 [3]: 7.00 to 8.00
CCc1ccc(-c2nnc(N[C@@H]3CCCN(C)C3)cc2C)c(O)c1 [compound 15] |  |  | potent | < 1 | high | 5.00 to 5.52 | 5.00 to 5.52 | pIC50 [3, 5]: > 9.00
Cc1cc(N[C@@H]2CCCN(C)C2)nnc1-c1ccc(F)cc1O [compound 1] | < 1 |  |  | 1 to 10 |  | 4.52 to 4.70 |  | 
Cc1cc(NCC2CCOCC2)nnc1-c1ccccc1O [compound 115] |  |  |  |  |  |  |  | IC50 [2, 6]: > 10 µM; pIC50 [3]: < 6.00
Cc1cc(NC[C@@H]2COCCO2)nnc1-c1ccccc1O [compound 120] |  |  |  |  |  |  |  | IC50 [2, 6]: > 10 µM; pIC50 [3]: < 6.00
Cc1cc(-c2ccccc2O)nnc1N[C@@H]1CCCN(C)C1 [compound 8] | > 10 |  |  | 1 to 10 |  |  |  | 
Cc1cc(N[C@@H]2CCCN(C)C2)nnc1-c1ncc(C(F)(F)F)cc1O [compound 107] |  |  |  |  |  |  |  | IC50 [2, 6]: > 10 µM; pIC50 [3]: > 9.00
CN1CCC[C@@H](N(C)c2ccc(-c3ccc(F)cc3O)nn2)C1 [compound 20] | 5 to 10 |  |  | > 1000 |  |  |  | 

Further lines, with some results ahead:

IC50 [2, 4] [µM] | pIC50 [2] | IL-1ß activity (in words) [3] | IC50 ([3]; THP1 macrophages) [nM] | Compound | hERG inhibition (in words) [1] | pIC50 ([1]; 33.0-37.0 °C, Table 10) | pIC50 ([1]; Table 11 comparison) | also measured
5 to 10 | 5.00 to 5.30 | potent | < 1 | Cc1cc(N[C@@H]2CCCN(C)C2)nnc1-c1ccc(C#N)cc1O [compound 51] | unexpectedly low | < 4.52 | < 4.52 | IL-6 activity (in words) [2]: potent; pIC50 [3, 5]: > 9.00
5 to 10 |  |  | 1 to 10 | Cc1cc(-c2nnc(N[C@@H]3CCCN(C)C3)cc2C)c(O)cc1C(F)(F)F [compound 76] |  |  |  | 
5 to 10 |  |  | 100 to 500 | Cc1cc(-c2nnc(N(C)[C@@H]3CCCN(C)C3)cc2C)c(O)cc1F [compound 66] |  |  |  | 
> 10 |  |  | 500 to 1000 | Cc1cc(N[C@H]2CN(C)CC(F)(F)C2)nnc1-c1ccccc1O [compound 40] |  |  |  | 
> 10 |  |  | 1 to 10 | Cc1cc(N[C@@H]2CCN(C)C2)nnc1-c1ccc(C(F)(F)F)cc1O [compound 96] |  |  |  | 
> 10 |  |  | 10 to 100 | Cc1cc(-c2ccc(C#N)cc2O)nnc1N[C@@H]1CCCN(C)C1 [compound 91] |  |  |  | 
